Measured values published in patent US20220054494A1, “METHODS FOR TREATING BLADDER AND URETHRA DYSFUNCTION AND DISEASE” (University of Pittsburgh - Of the Commonwealth System of …, priority 2019, published 2022).
Entries after “also recorded” stand apart in the source; their conditions may differ.

Legend:
[1] = tested on: aged rats; assay: Voiding analysis in metabolic cages, aged rats; format: in vivo, rat
Protocol: Experimental design: Young (3 months of age) and aged (25 to 30 months of age) Fisher 344 rats were used in these experiments. Some of the aged Fisher 344 rats were treated with 8-AG (5 mg kg/day via drinking water) for 1 month.
Voiding analysis: Rats were placed in metabolic cages for 24 hr (once per week for the duration of the study). Voided urine was collected in cups attached to force displacement transducers (GRASS TECHNOLOGIES®, Warwick, R.I.) connected to a computer running WINDAQ™ data acquisition software (DATAQ™ Instruments Inc., Akron, Ohio). Data were averaged for 24 h, and voiding frequency, total voided volume, and volume per void were analyzed. Voiding frequency was calculated as the number of voiding events per hour during 24 h, and volume per void, which defines bladder capacity, was calculated as an average of the voids occurring during these periods.
Animals: Male and female Fisher 344 rats were employed (Charles River; Wilmington, Mass. and the NIA rodent colony). Some rats were young (3 months of age), some were aged (25-30 months of age), and others were aged and treated with oral 8-AG (5 mg/kg/day; 6 weeks). Under isoflurane anesthesia and using an aseptic technique, an incision was made into the lower abdomen and in the scapular area. Sterile PE50 tubing was threaded subcutaneously from the lower abdomen to the scapular area and connected to a one-channel vascular access button (Intech Laboratories, Plymouth Meeting, Pa.). In the abdomen, the tubing was inserted into the bladder and secured with a small purse-string suture. The incisions were closed, and the animals were allowed to recover for 7-10 days before further experimentation. Animals were divided into three groups. A control group of aged rats received daily infusions with 10 μM DEA-NONOate (SIGMA-ALDRICH®, St. Louis, Mo.) in sterile 0.9% saline. A second group received 100 μM 8-AG plus 10 μM DEA-NONOate in 0.9% saline, and a third group received 5 μM forodesine (SIGMA-ALDRICH®) plus 10 μM DEA-NONOate in 0.9% saline. Bladders were instilled via a catheter tether kit (Instech Laboratories) connected to a syringe pump for continuous infusion (rate 200 μl/min; 30 minutes/daily) for 3-6 weeks. The Institutional Animal Care and Use Committee approved all procedures. The investigation conforms to the Guide for the Care and Use of Laboratory Animals published by the US National Institutes of Health (NIH Publication No. 85-23, revised 1996).
Protocol 1: Young, aged, and 8-AG-treated aged rats were placed in metabolism cages for 24 hr once per week. The light cycle was from 7:00 AM to 7:00 PM, and food and water were provided ad libitum. Voided urine was collected in cups attached to force displacement transducers (GRASS TECHNOLOGIES®, Warwick, R.I.) that were connected to a computer running Windaq data acquisition software (DATAQ® Instruments I2nc., Akron, Ohio). Data were averaged for 24 h and analyzed for 12-h periods during the day (7:00 AM-7:00 PM) and night (7:00 PM-7:00 AM). Voiding frequency, total voided volume, and volume per void were analyzed. Voiding frequency was calculated as the number of voiding events per hour during 24 h and during the 12-h day and 12-h night periods. Volume per void, which defines bladder capacity, was calculated as an average of the voids occurring during these periods.
Voiding Analysis: Young, aged, and 8-AG-treated aged rats were placed in metabolic cages (24 hr; once per week) for the duration of the study. The light cycle was from 7:00 AM to 7:00 PM, and food and water were provided ad libitum. Voided urine was collected in cups attached to force displacement transducers (Grass Technologies, Warwick, R.I.) connected to a computer (Windaq data acquisition software DATAQ Instruments Inc., Akron, Ohio). Data were averaged for 24 h and analyzed for 12-h periods during the day (7:00 AM-7:00 PM) and night (7:00 PM-7:00 AM). Voiding frequency, total voided volume, and volume per void were analyzed. […]

[2] = tested on: parkin; assay: Western immunoblotting, parkin; format: in vivo, rat; details: aged rats; oral 8-AG 5 mg/kg/day, 6 weeks
Protocol: Western immunoblotting: One half of each bladder preparation was homogenized using Lysing Matrix D in a FastPrep 24 instrument (MP Biomedicals, Solon, Ohio) in HBSS (5 mM KCl, 0.3 mM KH2PO4, 138 mM NaCl, 4 mM NaHO3, 0.3 mM Na2HCO3, 0.3 mM Na2HPO4, 5.6 mM glucose and 10 mM Hepes, pH 7.4) containing complete protease inhibitor cocktail (1 tablet/10 ml, ROCHE®, Indianapolis, Ind.)) and phosphatase inhibitor cocktail (SIGMA®, 1:100). After centrifugation (13000 rpm; 15 min at 4° C.), the membrane protein fraction was prepared by suspending the membrane pellets in lysis buffer containing 0.3 M NaCl, 50 mM Tris-HCl (pH 7.6) and 0.5% Triton X-100 and the same concentration of protease inhibitors as above. The suspensions were incubated on ice and centrifuged (13000 rpm; 15 min at 4° C.). The protein concentrations of the combined supernatants were determined using the PIERCE® BCA protein assay (THERMO SCIENTIFIC®, Rockford, Ill.). […] As a loading control, total protein per sample was determined using Bio-Rad® Stain Free SDS-PAGE gel technology. UV-activated protein fluorescence was imaged on a CHEMIDOC® MP (BIO-RAD®). […] The volume (intensity) of each protein species was determined and normalized to total protein using Image Lab software (BIO-RAD®).

[3] = aged Fischer 344 rats, oral 8-AG 5 mg/kg/day, 6 weeks
[4] = aged Fisher 344 rats, 8-AG 5 mg kg/day via drinking water, 1 month

## Nc1nc2[nH]c(N)nc2c(=O)[nH]1 [8-AG, 8-Aminoguanine]
[1]; [3]
  voided volume: attenuates
  voiding frequency: attenuates
[1]; [4]
  bladder abnormalities (voided volume, voiding efficiency, voiding frequency): reversed
  voided volume: attenuates
  voiding frequency: attenuates
[1]; aged rats, intravesical 100 μM 8-AG plus 10 μM DEA-NONOate, daily infusion 3-6 weeks, vs control aged rats
  voiding frequency: decreased; also recorded: attenuates
[2]
  parkin in bladder mucosa: reversed or restored to levels similar to the younger state; also recorded: restored changes similar to a younger state
